Assay [1] has as its target CMV-polymerase (Human cytomegalovirus (strain AD169) (HHV-5) (Human herpesvirus 5), UniProt P08546). As to the kind of experiment: biochemical. The conditions noted are these: read-out: CMV-polymerase Biochemical IC50.
In assay [2] the test system is CMV. As to the kind of experiment: microbe, parasite or virus in culture. In kind it is cell-based.
Assay [3] concerns KOS strain of HSV-1 virus. As to the kind of experiment: HSV-1 qPCR assay. As to conditions: Human alphaherpesvirus 1, 24 h. For orientation: In qPCR the cycle at which signal appears reflects the starting amount.
Assay [4] has as its target HSV-polymerase (Human herpesvirus 1 (strain 17) (HHV-1) (Human herpes simplex virus 1), UniProt P04293). As to the kind of experiment: biochemical.
In assay [5] the test system is VZV Ellen strain. As to the kind of experiment: VZV qPCR assay. The conditions noted are these: Human alphaherpesvirus 3, MRC5, 48 h, read-out: Cellular activity against VZV (EC50).
Assay [6] deals with HCMV-Rluc virus (AD169 pp28-hRluc rUL131). As to the kind of experiment: CMV Luciferase Assay of Compounds 243-262 in ARPE-19 cells. It counts as cell-based. The conditions noted are these: Human betaherpesvirus 5, AD169, ARPE-19, 72 h, read-out: CMV-Luc Cellular EC50 in ARPE-19. Here is the method: CMV Luciferase Assay of Compounds 243-262.
Compounds 243-262 were tested in a luminescence assay as follows.
ARPE-19 cells were maintained in growth medium (DMEM/F12 Glutamax+10 fetal bovine serum (FBS)+PenStrep) and, before reaching full confluence, were transferred to a centrifuge tube and spun for 5 minutes at 1000 rpm. The cells were resuspended in assay medium (DMEM/F12 Glutamax+2% FBS+PenStrep) and counted. Cell density was adjusted to one million cells per milliliter and infected with HCMV-Rluc virus (AD169 pp28-hRluc rUL131; MOI 0.6) in a 50 ml conical tube for 2 hours while shaking. After dilution of the infectious suspension ten-fold (to 100,000 cells per milliliter), 8000 cells are directly plated in 384-well plates pre-spotted with the compound to be tested. The cells were incubated for 72 hours at 37 degrees Celsius. Cells were then placed at room temperature and allowed to equilibrate for 20 minutes before addition of the Renilla-Glo (Promega) reagent. After a 10-minute incubation at room temperature, luminescence was measured on a microplate reader.

The mark [7] stands for this setting: Human betaherpesvirus 5, 72 h, read-out: CMV-Luc Cellular EC50, NN-NHDF cells, MOI 1, 72 hrs.
Setting [8] is: Human betaherpesvirus 5, read-out: Cellular activity against CMV (EC50), Table 18.
[9] abbreviates: read-out: Cellular activity against HSV-1 (EC50), NN-NHDF cells, MOI 0.01, 24 hrs, qPCR.

Where two headings read alike, the source gives them in different places.

Usually IC50 stands for the concentration that inhibits the measured activity by half. A word on the EC50: it is the midpoint of the concentration-response curve. Regarding `CC1(S(=O)(=O)C2(CN3CCc4c(C(=O)NCc5ccc(C#N)cc5)nn(CCO)c4C3=O)CC2)CC1` [Example 217, N-(4-Cyanobenzyl)-1-(2-hydroxyethyl)-6-((1-((1-methylcyclopropyl)sulfonyl)cyclopropyl)methyl)-7-oxo-4,5,6,7-tetrahydro-1H-pyrazolo[3,4-c]pyridine-3-carboxamide], in assay [1], the IC50 is 1 nM. In addition, the figures for the concentration giving a half-maximal response (EC50) in assay [2] (setting [7]), in assay [2] (setting [8]) and in assay [3] (setting [9]) were 29 nM, 29 nM and 36 nM, respectively.

`CC(C)(CO)S(=O)(=O)C1(CN2CCc3c(C(=O)NCc4ccc(Cl)cc4)nn(CCO)c3C2=O)CC1` [Example 221, N-(4-chlorobenzyl)-6-((1-((1-hydroxy-2-methylpropan-2-yl)sulfonyl)cyclopropyl)methyl)-1-(2-hydroxyethyl)-7-oxo-4,5,6,7-tetrahydro-1H-pyrazolo[3,4-c]pyridine-3-carboxamide]: the 50% inhibitory concentration (IC50) in assay [1] came out at 1 nM. The EC50 amounted to 17 nM in assay [2] (setting [7]), 17 nM in assay [2] (setting [8]) and 10 nM in assay [3] (setting [9]).

As for `Cn1nc(C(=O)NCc2ccc(Cl)cc2)c2c1C(=O)N(CC1(S(=O)(=O)C(C)(C)C(O)CN)CC1)CC2` (single isomer, unassigned) [Example 200, (R)- or (S)-6-((1-((4-Amino-3-hydroxy-2-methylbutan-2-yl)sulfonyl)cyclopropyl)methyl)-N-(4-chlorobenzyl)-1-methyl-7-oxo-4,5,6,7-tetrahydro-1H-pyrazolo[3,4-c]pyridine-3-carboxamide], the values for the concentration giving a half-maximal response (EC50) in assay [2] (setting [7]), in assay [2] (setting [8]) and in assay [3] (setting [9]) were 5 nM, 5 nM and 16 nM, respectively.

Consider `Cn1nc(C(=O)NCc2ccc(C#N)cc2)c2c1C(=O)N(CC1(S(=O)(=O)C(C)(C)COCCN)CC1)CC2` [Example 92, 6-((1-((1-(2-Aminoethoxy)-2-methylpropan-2-yl)sulfonyl)cyclopropyl)methyl)-N-(4-cyanobenzyl)-1-methyl-7-oxo-4,5,6,7-tetrahydro-1H-pyrazolo[3,4-c]pyridine-3-carboxamide], for which the figures for the half-maximal inhibitory concentration (IC50) in assay [1] and in assay [4] were 1 nM and 30 nM, respectively. For the same compound, the EC50 in assay [2] (setting [7]) came to 12 nM; in assay [2] (setting [8]) it was 12 nM; in assay [3] (setting [9]), 30 nM.

With `Cn1nc(C(=O)NCc2ccc(C#N)cc2)c2c1C(=O)N(CC1(S(=O)(=O)C3CC3)CC1)CC2` [Example 3, N-(4-cyanobenzyl)-6-((1-(cyclopropylsulfonyl)cyclopropyl)methyl)-1-methyl-7-oxo-4,5,6,7-tetrahydro-1H-pyrazolo[3,4-c]pyridine-3-carboxamide], in assay [1], the IC50 was determined as 2 nM. Further, the EC50 in assay [2] (setting [7]) was 39 nM; in assay [2] (setting [8]), 39 nM; in assay [5], 11 nM; in assay [3] (read-out: Cellular activity against HSV-1 (EC50)), 33 nM.

As for `CC(NS(=O)(=O)C1(CN2CCc3c(C(=O)NCc4ccc(C#N)cc4)nn(C)c3C2=O)CC1)c1cnccn1` (centres unmarked) [Example 259, N-(4-cyanobenzyl)-1-methyl-7-oxo-6-((1-(N-(1-(pyrazin-2-yl)ethyl)sulfamoyl)cyclopropyl)methyl)-4,5,6,7-tetrahydro-1H-pyrazolo[3,4-c]pyridine-3-carboxamide], the EC50 in assay [6] worked out at 714 nM.

In the case of `Cn1nc(C(=O)NCc2ccc(Cl)cc2)c2c1C(=O)N(CC1(S(=O)(=O)C3CC3)CC1)CC2` [Example 4, N-(4-Chlorobenzyl)-6-((1-(cyclopropylsulfonyl)cyclopropyl)methyl)-1-methyl-7-oxo-4,5,6,7-tetrahydro-1H-pyrazolo[3,4-c]pyridine-3-carboxamide], the IC50 in assay [1] is 2 nM. Moreover, the EC50 in assay [2] (setting [7]) amounted to 23 nM; in assay [2] (setting [8]), 23 nM; in assay [5] it was 8 nM; in assay [3] (setting [9]) it was 64 nM.

For `Cn1nc(C(=O)NCc2ccc(C#N)cc2)c2c1C(=O)N(CC1(S(=O)(=O)NC(C)(C)CC(N)=O)CC1)CC2` [Example 253, 6-((1-(N-(4-amino-2-methyl-4-oxobutan-2-yl)sulfamoyl)cyclopropyl)methyl)-N-(4-cyanobenzyl)-1-methyl-7-oxo-4,5,6,7-tetrahydro-1H-pyrazolo[3,4-c]pyridine-3-carboxamide], the EC50 in assay [6] is 386 nM.

Consider `Cn1nc(C(=O)NCc2ccc(Cl)c(F)c2)c2c1C(=O)N(CC1(S(=O)(=O)C(C)(C)[C@@H](O)CO)CC1)CC2` [Example 251, (S)—N-(4-chloro-3-fluorobenzyl)-6-((1-((3,4-dihydroxy-2-methylbutan-2-yl)sulfonyl)cyclopropyl)methyl)-1-methyl-7-oxo-4,5,6,7-tetrahydro-1H-pyrazolo[3,4-c]pyridine-3-carboxamide], for which the concentration for a half-maximal effect (EC50) in assay [6] was found to be 9.83 nM.

Take `Cn1nc(C(=O)NCc2ccc(C#N)cc2)c2c1C(=O)N(CC1(S(=O)(=O)Nc3ncccc3F)CC1)CC2` [Example 247, N-(4-cyanobenzyl)-6-((1-(N-(3-fluoropyridin-2-yl)sulfamoyl)cyclopropyl)methyl)-1-methyl-7-oxo-4,5,6,7-tetrahydro-1H-pyrazolo[3,4-c]pyridine-3-carboxamide]: in assay [6], the half-maximal effective concentration (EC50) is 388 nM.

Take `Cn1nc(C(=O)NCc2ccc(C#N)cc2)c2c1C(=O)N(CC1(S(=O)(=O)Nc3ccccc3)CC1)CC2` [Example 246, N-(4-cyanobenzyl)-1-methyl-7-oxo-6-((1-(N-phenylsulfamoyl)cyclopropyl)methyl)-4,5,6,7-tetrahydro-1H-pyrazolo[3,4-c]pyridine-3-carboxamide]: the half-maximal effective concentration (EC50) in assay [6] came to 74.5 nM.

As for `Cn1nc(C(=O)NCc2ccc(C#N)cc2)c2c1C(=O)N(CC1(S(=O)(=O)NC(CO)(CO)CO)CC1)CC2` [Example 261, N-(4-cyanobenzyl)-6-((1-(N-(1,3-dihydroxy-2-(hydroxymethyl)propan-2-yl)sulfamoyl)cyclopropyl)methyl)-1-methyl-7-oxo-4,5,6,7-tetrahydro-1H-pyrazolo[3,4-c]pyridine-3-carboxamide], in assay [6], the EC50 turned out to be 2580 nM.

As to `Cn1nc(C(=O)NCc2ccc(C#N)cc2)c2c1C(=O)N(CC1(S(=O)(=O)Nc3ccccc3C#N)CC1)CC2` [Example 248, N-(4-cyanobenzyl)-6-((1-(N-(2-cyanophenyl)sulfamoyl)cyclopropyl)methyl)-1-methyl-7-oxo-4,5,6,7-tetrahydro-1H-pyrazolo[3,4-c]pyridine-3-carboxamide], the half-maximal effective concentration (EC50) in assay [6] is 10000 nM.

As for `Cn1nc(C(=O)NCc2ccc(C#N)cc2)c2c1C(=O)N(CC1(S(N)(=O)=O)CC1)CC2` [Example 262, N-(4-cyanobenzyl)-1-methyl-7-oxo-6-((1-sulfamoylcyclopropyl)methyl)-4,5,6,7-tetrahydro-1H-pyrazolo[3,4-c]pyridine-3-carboxamide], the half-maximal effective concentration (EC50) in assay [6] was 252 nM.

With `Cn1nc(C(=O)NCc2ccc(Cl)c(F)c2)c2c1C(=O)N(CC1(S(=O)(=O)C(C)(C)[C@H](O)CO)CC1)CC2` [Example 250, (R)—N-(4-chloro-3-fluorobenzyl)-6-((1-((3,4-dihydroxy-2-methylbutan-2-yl)sulfonyl)cyclopropyl)methyl)-1-methyl-7-oxo-4,5,6,7-tetrahydro-1H-pyrazolo[3,4-c]pyridine-3-carboxamide], in assay [6], the concentration for a half-maximal effect (EC50) is 26.7 nM.

With `Cn1nc(C(=O)NCc2ccc(C#N)cc2)c2c1C(=O)N(CC1(S(=O)(=O)NCc3ncccn3)CC1)CC2` [Example 258, N-(4-cyanobenzyl)-1-methyl-7-oxo-6-((1-(N-(pyrimidin-2-ylmethyl)sulfamoyl)cyclopropyl)methyl)-4,5,6,7-tetrahydro-1H-pyrazolo[3,4-c]pyridine-3-carboxamide], the EC50 in assay [6] came out at 688 nM.

In the case of `Cn1nc(C(=O)NCc2ccc(C#N)cc2)c2c1C(=O)N(CC1(S(=O)(=O)Nc3cccc(CO)n3)CC1)CC2` [Example 243, N-(4-cyanobenzyl)-6-((1-(N-(6-(hydroxymethyl)pyridin-2-yl)sulfamoyl)cyclopropyl)methyl)-1-methyl-7-oxo-4,5,6,7-tetrahydro-1H-pyrazolo[3,4-c]pyridine-3-carboxamide], the EC50 in assay [6] worked out at 115 nM.

Regarding `Cn1nc(C(=O)NCc2ccc(C#N)cc2)c2c1C(=O)N(CC1(S(=O)(=O)NC(C)(CO)CO)CC1)CC2` [Example 257, N-(4-cyanobenzyl)-6-((1-(N-(1,3-dihydroxy-2-methylpropan-2-yl)sulfamoyl)cyclopropyl)methyl)-1-methyl-7-oxo-4,5,6,7-tetrahydro-1H-pyrazolo[3,4-c]pyridine-3-carboxamide], the EC50 in assay [6] was 358 nM.
